Measurements as given in ChEMBL document CHEMBL4325871 (Eur J Med Chem, 2019).

Columns and labels:
[1] = target: T1, Serine/threonine-protein kinase Chk1 (Homo sapiens) (UniProt O14757); experiment: Inhibition of CHK1 phosphorylation at S317 residue in human FOLFOX-resistant HCT116 cells after 24 hrs by Western blot analysis
T1 sequence (whole entry): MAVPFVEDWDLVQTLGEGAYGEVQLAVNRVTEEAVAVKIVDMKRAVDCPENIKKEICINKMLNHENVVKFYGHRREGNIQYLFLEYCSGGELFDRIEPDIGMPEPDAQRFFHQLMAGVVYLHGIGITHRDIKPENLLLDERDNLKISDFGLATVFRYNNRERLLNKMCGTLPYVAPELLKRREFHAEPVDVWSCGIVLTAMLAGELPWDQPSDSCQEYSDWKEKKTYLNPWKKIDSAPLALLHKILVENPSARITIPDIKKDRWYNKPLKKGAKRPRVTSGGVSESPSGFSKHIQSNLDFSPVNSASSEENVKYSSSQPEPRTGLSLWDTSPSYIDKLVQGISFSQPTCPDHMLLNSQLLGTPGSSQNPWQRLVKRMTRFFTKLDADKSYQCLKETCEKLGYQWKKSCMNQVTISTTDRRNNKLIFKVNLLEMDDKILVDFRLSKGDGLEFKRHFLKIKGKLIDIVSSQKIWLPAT

[2] = target: T1, Serine/threonine-protein kinase Chk1 (Homo sapiens); experiment: Inhibition of CHK1 phosphorylation at S317 residue in human FOLFOX-resistant HT-29 cells after 24 hrs by Western blot analysis
[3] = target: T2, Serine/threonine-protein kinase A-Raf (Homo sapiens) (UniProt P10398); experiment: Inhibition of human ARAF assessed as residual activity at 1 uM using MEK1 as substrate by [gamma-33P]-ATP assay relative to control
T2 sequence (whole entry): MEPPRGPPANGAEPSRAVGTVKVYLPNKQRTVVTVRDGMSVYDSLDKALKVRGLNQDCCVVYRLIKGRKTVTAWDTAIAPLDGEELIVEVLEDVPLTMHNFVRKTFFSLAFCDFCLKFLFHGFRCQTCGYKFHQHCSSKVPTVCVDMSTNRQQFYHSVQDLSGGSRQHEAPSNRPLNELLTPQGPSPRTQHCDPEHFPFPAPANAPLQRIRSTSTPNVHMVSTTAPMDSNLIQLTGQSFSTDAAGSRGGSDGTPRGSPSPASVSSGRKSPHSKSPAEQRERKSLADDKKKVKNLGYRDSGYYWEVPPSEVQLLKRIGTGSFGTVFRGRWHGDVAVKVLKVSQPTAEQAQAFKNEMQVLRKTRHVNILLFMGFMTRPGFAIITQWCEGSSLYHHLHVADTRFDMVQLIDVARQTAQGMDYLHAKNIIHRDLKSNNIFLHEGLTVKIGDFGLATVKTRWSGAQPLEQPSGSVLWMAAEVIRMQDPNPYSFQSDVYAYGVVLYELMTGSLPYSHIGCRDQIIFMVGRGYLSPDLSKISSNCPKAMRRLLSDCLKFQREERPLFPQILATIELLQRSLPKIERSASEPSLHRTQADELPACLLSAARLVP

[4] = target: Mitogen-activated protein kinase kinase kinase 5 (Homo sapiens) (UniProt Q99683); experiment: Inhibition of human ASK1 assessed as residual activity at 1 uM using MBP as substrate by [gamma-33P]-ATP assay relative to control
[5] = target: Calcium/calmodulin-dependent protein kinase kinase 1 (Homo sapiens) (UniProt Q8N5S9); experiment: Inhibition of human CAMKK1 assessed as residual activity at 1 uM using MBP as substrate by [gamma-33P]-ATP assay relative to control
[6] = target: Casein kinase II subunit alpha (Homo sapiens, UniProt P68400); experiment: Inhibition of human CK2A assessed as residual activity at 1 uM using RRRDDDSDDD as substrate by [gamma-33P]-ATP assay relative to control
[7] = target: Dual specificity protein kinase CLK3 (Homo sapiens) (UniProt P49761); experiment: Inhibition of human CLK3 assessed as residual activity at 1 uM using MBP as substrate by [gamma-33P]-ATP assay relative to control
[8] = target: Dual specificity protein kinase CLK4 (Homo sapiens) (UniProt Q9HAZ1); experiment: Inhibition of human CLK4 assessed as residual activity at 1 uM using MBP as substrate by [gamma-33P]-ATP assay relative to control
[9] = target: Ephrin type-B receptor 3 (Homo sapiens) (UniProt P54753); experiment: Inhibition of human EPHB3 assessed as residual activity at 1 uM using poly[Glu:Tyr] (4:1) as substrate by [gamma-33P]-ATP assay relative to control
[10] = target: Interleukin-1 receptor-associated kinase 4 (Homo sapiens) (UniProt Q9NWZ3); experiment: Inhibition of human IRAK4 assessed as residual activity at 1 uM using MBP as substrate by [gamma-33P]-ATP assay relative to control
[11] = target: MAP/microtubule affinity-regulating kinase 4 (Homo sapiens) (UniProt Q96L34); experiment: Inhibition of human MARK4 assessed as residual activity at 1 uM using KKKVSRSGLYRSPSMPENLNRPR as substrate by [gamma-33P]-ATP assay relative to control
[12] = target: Dual specificity mitogen-activated protein kinase kinase 1 (Homo sapiens) (UniProt Q02750); experiment: Inhibition of human MEK1 assessed as residual activity at 1 uM using ERK2 as substrate by [gamma-33P]-ATP assay relative to control
[13] = target: Mitogen-activated protein kinase kinase kinase 3 (Homo sapiens) (UniProt Q99759); experiment: Inhibition of human MEKK3 assessed as residual activity at 1 uM using MBP as substrate by [gamma-33P]-ATP assay relative to control
[14] = target: Serine/threonine-protein kinase 26 (Homo sapiens) (UniProt Q9P289); experiment: Inhibition of human MST4 assessed as residual activity at 1 uM using MBP as substrate by [gamma-33P]-ATP assay relative to control
[15] = target: Serine/threonine-protein kinase Nek9 (Homo sapiens) (UniProt Q8TD19); experiment: Inhibition of human NEK9 assessed as residual activity at 1 uM using casein as substrate by [gamma-33P]-ATP assay relative to control
[16] = target: Platelet-derived growth factor receptor beta (Homo sapiens) (UniProt P09619); experiment: Inhibition of human PDGFRbeta assessed as residual activity at 1 uM using poly[Glu:Tyr] (4:1) as substrate by [gamma-33P]-ATP assay relative to control
[17] = target: cAMP-dependent protein kinase catalytic subunit PRKX (Homo sapiens) (UniProt P51817); experiment: Inhibition of human PRKX assessed as residual activity at 1 uM using LRRASLG as substrate by [gamma-33P]-ATP assay relative to control
[18] = target: Proto-oncogene tyrosine-protein kinase ROS (Homo sapiens) (UniProt P08922); experiment: Inhibition of human ROS assessed as residual activity at 1 uM using KKKSPGEYVNIEFG as substrate by [gamma-33P]-ATP assay relative to control
[19] = target: Serine/threonine-protein kinase 33 (Homo sapiens) (UniProt Q9BYT3); experiment: Inhibition of human STK33 assessed as residual activity at 1 uM using MBP as substrate by [gamma-33P]-ATP assay relative to control

Chain of Dual specificity protein kinase CLK4 (Homo sapiens) (Q9HAZ1 whole entry, looked up): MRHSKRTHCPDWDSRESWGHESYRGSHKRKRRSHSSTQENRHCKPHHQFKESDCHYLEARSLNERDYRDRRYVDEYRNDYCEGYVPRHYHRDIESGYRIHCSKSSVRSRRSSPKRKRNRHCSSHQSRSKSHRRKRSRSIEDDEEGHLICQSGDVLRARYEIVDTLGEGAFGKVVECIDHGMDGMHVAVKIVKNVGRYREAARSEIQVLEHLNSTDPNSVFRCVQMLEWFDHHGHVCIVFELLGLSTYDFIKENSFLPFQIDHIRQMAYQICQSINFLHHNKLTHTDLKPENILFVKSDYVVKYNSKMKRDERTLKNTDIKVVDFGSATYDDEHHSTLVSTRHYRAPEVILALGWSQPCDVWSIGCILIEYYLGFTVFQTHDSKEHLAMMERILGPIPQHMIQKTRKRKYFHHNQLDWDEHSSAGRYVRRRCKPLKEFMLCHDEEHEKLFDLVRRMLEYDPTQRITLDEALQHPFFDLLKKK
Chain of Dual specificity protein kinase CLK3 (Homo sapiens) (P49761 whole entry, looked up): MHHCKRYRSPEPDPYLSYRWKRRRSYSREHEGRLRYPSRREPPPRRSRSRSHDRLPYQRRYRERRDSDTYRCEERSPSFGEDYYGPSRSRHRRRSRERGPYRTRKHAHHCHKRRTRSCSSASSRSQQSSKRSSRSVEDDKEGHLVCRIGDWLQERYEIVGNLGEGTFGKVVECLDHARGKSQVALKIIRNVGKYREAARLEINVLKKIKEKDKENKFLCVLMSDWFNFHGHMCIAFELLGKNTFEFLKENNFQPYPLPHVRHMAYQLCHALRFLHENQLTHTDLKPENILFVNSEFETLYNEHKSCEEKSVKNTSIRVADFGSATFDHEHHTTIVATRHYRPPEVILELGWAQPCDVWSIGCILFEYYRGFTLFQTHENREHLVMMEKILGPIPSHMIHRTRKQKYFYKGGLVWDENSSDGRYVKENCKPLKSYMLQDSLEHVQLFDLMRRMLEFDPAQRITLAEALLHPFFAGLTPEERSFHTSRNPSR
Chain of Serine/threonine-protein kinase Nek9 (Homo sapiens) (Q8TD19 whole entry): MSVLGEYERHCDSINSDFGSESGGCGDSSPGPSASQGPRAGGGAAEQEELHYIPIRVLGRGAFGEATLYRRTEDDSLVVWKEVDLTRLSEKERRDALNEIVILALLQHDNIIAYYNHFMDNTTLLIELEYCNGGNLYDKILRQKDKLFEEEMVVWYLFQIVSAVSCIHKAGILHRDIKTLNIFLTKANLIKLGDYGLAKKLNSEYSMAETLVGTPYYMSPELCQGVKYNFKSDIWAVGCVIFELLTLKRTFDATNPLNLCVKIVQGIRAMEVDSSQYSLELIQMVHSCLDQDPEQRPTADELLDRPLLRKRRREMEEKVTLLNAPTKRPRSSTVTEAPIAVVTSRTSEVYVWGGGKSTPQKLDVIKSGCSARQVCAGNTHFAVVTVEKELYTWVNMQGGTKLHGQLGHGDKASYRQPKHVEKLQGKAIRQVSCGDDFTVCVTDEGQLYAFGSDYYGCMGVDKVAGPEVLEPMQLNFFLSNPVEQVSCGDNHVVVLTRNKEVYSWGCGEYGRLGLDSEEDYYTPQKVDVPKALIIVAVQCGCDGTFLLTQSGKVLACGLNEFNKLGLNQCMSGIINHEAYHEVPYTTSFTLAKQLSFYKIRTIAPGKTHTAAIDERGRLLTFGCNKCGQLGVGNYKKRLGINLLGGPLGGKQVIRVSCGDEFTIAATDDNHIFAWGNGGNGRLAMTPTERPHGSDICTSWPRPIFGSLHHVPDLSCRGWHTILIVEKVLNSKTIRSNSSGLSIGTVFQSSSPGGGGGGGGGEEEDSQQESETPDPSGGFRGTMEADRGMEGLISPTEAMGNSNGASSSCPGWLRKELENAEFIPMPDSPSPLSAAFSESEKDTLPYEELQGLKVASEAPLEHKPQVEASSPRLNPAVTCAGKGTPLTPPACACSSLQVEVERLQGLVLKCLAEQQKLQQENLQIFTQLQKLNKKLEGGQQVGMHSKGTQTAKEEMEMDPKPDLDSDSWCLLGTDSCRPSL
Chain of Proto-oncogene tyrosine-protein kinase ROS (Homo sapiens) (P08922 whole entry): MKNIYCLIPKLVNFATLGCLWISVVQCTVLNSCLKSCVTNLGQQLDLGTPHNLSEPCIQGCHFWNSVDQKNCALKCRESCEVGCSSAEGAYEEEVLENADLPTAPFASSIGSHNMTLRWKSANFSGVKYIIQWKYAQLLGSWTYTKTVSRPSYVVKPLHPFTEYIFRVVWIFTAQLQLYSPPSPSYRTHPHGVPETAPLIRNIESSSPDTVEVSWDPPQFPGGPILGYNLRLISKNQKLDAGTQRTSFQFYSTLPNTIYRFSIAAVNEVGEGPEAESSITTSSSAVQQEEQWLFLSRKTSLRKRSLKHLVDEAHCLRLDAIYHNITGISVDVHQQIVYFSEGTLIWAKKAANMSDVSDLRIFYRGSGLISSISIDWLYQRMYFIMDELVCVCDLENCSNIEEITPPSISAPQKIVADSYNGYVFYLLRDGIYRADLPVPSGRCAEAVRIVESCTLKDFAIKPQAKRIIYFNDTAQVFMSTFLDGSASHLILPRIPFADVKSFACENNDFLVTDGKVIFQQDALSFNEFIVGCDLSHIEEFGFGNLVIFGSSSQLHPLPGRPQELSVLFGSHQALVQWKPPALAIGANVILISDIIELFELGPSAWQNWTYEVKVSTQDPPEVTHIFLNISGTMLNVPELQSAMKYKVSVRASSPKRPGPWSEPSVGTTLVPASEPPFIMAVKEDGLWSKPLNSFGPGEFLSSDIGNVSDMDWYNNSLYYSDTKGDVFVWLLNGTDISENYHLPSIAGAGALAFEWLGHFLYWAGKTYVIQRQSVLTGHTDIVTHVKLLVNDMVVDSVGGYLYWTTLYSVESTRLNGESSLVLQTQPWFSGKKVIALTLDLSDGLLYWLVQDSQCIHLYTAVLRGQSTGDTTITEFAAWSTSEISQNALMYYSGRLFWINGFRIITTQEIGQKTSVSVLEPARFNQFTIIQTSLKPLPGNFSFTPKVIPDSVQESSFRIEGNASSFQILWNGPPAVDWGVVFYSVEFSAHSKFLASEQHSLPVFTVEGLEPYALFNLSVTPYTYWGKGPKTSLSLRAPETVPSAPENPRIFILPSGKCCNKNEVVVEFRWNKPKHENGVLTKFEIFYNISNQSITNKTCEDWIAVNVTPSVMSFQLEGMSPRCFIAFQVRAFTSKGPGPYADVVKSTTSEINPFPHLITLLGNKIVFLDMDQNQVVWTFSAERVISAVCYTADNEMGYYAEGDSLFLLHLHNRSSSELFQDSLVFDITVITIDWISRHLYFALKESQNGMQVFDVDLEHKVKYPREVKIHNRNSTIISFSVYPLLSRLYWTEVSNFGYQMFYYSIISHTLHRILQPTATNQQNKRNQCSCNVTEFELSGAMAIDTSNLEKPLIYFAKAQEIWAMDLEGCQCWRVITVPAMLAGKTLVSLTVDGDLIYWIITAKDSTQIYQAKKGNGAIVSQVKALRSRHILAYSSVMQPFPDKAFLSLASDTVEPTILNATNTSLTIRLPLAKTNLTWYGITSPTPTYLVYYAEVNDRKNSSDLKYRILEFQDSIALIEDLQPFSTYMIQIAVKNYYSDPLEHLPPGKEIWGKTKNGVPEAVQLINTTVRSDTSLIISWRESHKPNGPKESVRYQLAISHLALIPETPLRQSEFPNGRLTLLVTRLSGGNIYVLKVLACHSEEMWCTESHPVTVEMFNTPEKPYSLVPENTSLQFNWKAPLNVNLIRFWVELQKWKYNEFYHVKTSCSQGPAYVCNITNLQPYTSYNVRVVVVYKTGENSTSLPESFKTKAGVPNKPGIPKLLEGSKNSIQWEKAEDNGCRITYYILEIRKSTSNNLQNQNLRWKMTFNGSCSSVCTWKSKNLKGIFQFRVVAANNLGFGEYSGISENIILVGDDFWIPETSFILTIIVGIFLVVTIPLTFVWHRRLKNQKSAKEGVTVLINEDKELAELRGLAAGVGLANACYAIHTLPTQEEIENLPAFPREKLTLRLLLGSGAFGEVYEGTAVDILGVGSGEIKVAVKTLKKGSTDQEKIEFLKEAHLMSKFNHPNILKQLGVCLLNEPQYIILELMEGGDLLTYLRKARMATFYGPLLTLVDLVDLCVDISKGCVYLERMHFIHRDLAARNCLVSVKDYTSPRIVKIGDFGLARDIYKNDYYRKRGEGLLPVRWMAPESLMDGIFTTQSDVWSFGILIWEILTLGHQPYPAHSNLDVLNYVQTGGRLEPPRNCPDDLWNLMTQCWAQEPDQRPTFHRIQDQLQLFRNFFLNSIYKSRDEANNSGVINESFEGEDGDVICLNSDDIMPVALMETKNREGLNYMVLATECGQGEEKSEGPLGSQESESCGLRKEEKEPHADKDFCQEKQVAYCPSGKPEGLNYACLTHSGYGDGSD
Chain of Interleukin-1 receptor-associated kinase 4 (Homo sapiens) (Q9NWZ3 whole entry): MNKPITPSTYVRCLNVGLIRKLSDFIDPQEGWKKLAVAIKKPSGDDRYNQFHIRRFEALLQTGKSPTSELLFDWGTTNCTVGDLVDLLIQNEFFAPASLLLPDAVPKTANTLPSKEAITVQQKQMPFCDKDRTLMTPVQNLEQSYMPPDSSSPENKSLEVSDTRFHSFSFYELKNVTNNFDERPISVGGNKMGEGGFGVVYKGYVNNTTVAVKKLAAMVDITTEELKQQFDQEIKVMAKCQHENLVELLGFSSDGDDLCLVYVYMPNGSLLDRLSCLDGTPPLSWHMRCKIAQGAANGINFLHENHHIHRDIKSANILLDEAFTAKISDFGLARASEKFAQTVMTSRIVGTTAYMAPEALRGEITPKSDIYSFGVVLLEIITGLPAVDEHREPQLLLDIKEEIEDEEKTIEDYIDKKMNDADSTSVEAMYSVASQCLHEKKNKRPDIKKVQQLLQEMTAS

| Compound | inhibition [1] | inhibition [2] | Activity [3] [%] | Activity [4] [%] | Activity [5] [%] | Activity [6] [%] | Activity [7] [%] | Activity [8] [%] | Activity [9] [%] | Activity [10] [%] | Activity [11] [%] | Activity [12] [%] | Activity [13] [%] | Activity [14] [%] | Activity [15] [%] | Activity [16] [%] | Activity [17] [%] | Activity [18] [%] | Activity [19] [%] |
| --- | --- | --- | --- | --- | --- | --- | --- | --- | --- | --- | --- | --- | --- | --- | --- | --- | --- | --- | --- |
| C(=C\c1ccccc1)/C[N+]12CN3CN(CN(C3)C1)C2 | Dose-dependent effect | Dose-dependent effect | 92 to 97 | 89.4 to 90.7 | 91.5 to 93.2 | 124 to 125 | 96.2 to 96.9 | 93.1 to 93.2 | 94 to 96 | 92.1 to 96.8 | 93.8 to 96.3 | 93 to 94.8 | 117 to 119 | 90.7 to 92.2 | 93.4 to 95.1 | 91.9 to 93.1 | 93.3 to 94.9 | 94.4 to 94.8 | 94.9 to 95.4 |
| ClC/C=C/C[N+]12CN3CN(CN(C3)C1)C2 | Dose-dependent effect | Dose-dependent effect | 93.8 to 95.3 | 87.6 to 89 | 95.5 to 95.7 | 124 to 125 | 92.6 to 95.8 | 86.9 to 91.8 | 93 to 93.5 | 91.5 to 92.7 | 90.2 to 95.2 | 94.4 to 96.6 | 118 to 123 | 83.3 to 87.1 | 93.8 to 95.2 | 90.5 to 92 | 95.2 to 96 | 94 to 95.2 | 86.5 to 88.4 |
